Key:
[1] = system: shoot apical meristem of cucurbit rootstock plant; experiment: Inhibition of the shoot apical meristem of cucurbit rootstock; assay type: in vivo; conditions: fatty alcohols about 2.3% (v/v); Oryzalin about 10 mM; sulfuric acid about 18N to about 9N; applied to shoot apical meristem
From the text: Rootstock plants, bottle gourd (Lagenaria siceraria var. ‘Emphasis’) or interspecific hybrid squash (C. maxima×C. moschata var. ‘Carnivor’), were sown in Fafard 3-b fertilizer-free mix and allowed to germinate. At the point when the cotyledons unfolded, (approx. 5-10 days after seeding) a droplet of a composition comprising fatty alcohols was applied to the shoot apical meristem of the seedling, between the cotyledons, so that the meristem was covered with solution. […] The droplet volume was 20 to 500 μL and was applied with a pipette (20-200 μL or 1000 μL volume capability, using plastic tips). Seedlings were watered prior to treatment, to avoid needing to water post-treatment, which can dilute or wash away the fatty alcohol solution and prevent burnout of the shoot apical meristem. The treated rootstock seedlings can then be grafted to the appropriate scion at about 1 to 21 days post-treatment. In this case, the rootstock seedling was grafted to a cucurbit scion at about 24 hours after the rootstock shoot apical meristem was first contacted with the fatty alcohol composition.
Maleic hydrazide (21.7%; Royal MH-30®; Chemtura Corp., Middlebury, Conn.) at a concentration of about 90 mg/ml was applied to the shoot apical meristem of rootstock plant. The treated rootstock plants were incubated for about 24 hours prior to grafting to a scion.

[2] = system: cucurbit rootstock seedling grafted to watermelon or melon scion
Method: Grafting can be performed at about 1-21 days after a rootstock shoot apical meristem is treated with a fatty alcohol solution. Possible grafting methods include the following: 1) hole-insertion, in which the rootstock meristem is removed, a hole is punched into the old meristematic area with a bamboo needle, and the scion (cut at the end to both sharpen and expose vascular cambium tissue) is inserted into the prepared rootstock; and 2) one cotyledon, where the rootstock's meristem area and one cotyledon are removed, and the cut scion hypocotyl is adjoined to the resulting wound, stabilized with a clip, and allowed to heal. Once grafted, the plants are placed for approximately seven days in a healing chamber under high humidity for about the first 1-3 days, and then gradually decreasing humidity for the remaining days. After about seven days of healing, the grafted plants can be removed from the chamber and planted.
In this case, the cucurbit rootstock seedling as described in Example 1 was grafted to a cucurbit scion, watermelon (Citrullus lanatus subsp. vulgaris cv. ‘Tri-X-313’) or melon (Cucumis melo cv. ‘Athena’) at about 24 hours after the rootstock shoot apical meristem was first contacted with the fatty alcohol composition. Seven days were allowed for the graft to heal. […]

With `O=S(=O)(O)O` [sulfuric acid, Sulfuric acid] the “effect on rootstock shoot apical meristem” value [1] was “death of the shoot apical meristem”, the “successful grafts out of 2016 attempted grafts” value ([2]; grafted about 24 hours after treatment, fatty alcohols about 2.3% (v/v), maleic hydrazide about 90 mg/ml, Oryzalin about 10 mM, sulfuric acid about 18N to about 9N) was “none were successful” and the “effect on grafting tissues” value ([2]; sulfuric acid about 18N to about 9N applied to shoot apical meristem) was “the grafting tissues were also destroyed”.
